# Reference: article PMC9687798, “Atypical Substrates of the Organic Cation Transporter 1” (Biomolecules, 2022)
# Substitutions are numbered along the chain they refer to. Entries after “also recorded” stand apart in the source; their conditions may differ.
# Assays:
# [1] = target: T1, human OCT1*1 (wild-type) (Homo sapiens, UniProt O15245); test: Cellular uptake ratio, OCT1-overexpressing HEK293 cells vs empty vector; format: cell-based; conditions: based on ratio uptake data at 1 µM
# T1 sequence (O15245 1-554): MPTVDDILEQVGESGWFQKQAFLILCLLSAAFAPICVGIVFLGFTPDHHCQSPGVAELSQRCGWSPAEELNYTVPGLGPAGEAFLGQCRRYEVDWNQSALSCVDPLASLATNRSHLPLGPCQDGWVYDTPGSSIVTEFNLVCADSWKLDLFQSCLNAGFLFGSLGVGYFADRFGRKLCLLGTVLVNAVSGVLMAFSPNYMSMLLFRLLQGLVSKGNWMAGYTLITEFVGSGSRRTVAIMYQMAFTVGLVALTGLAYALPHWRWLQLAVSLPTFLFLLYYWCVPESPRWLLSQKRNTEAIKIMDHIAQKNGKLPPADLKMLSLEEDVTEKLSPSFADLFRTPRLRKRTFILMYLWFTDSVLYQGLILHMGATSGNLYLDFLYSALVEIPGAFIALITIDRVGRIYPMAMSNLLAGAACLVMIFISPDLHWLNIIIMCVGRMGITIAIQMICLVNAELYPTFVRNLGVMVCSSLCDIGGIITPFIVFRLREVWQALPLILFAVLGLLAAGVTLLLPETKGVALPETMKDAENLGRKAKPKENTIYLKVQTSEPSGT
# Method: (§1) The wild-type cell lines of OCT1 and OCT2, as well as the variant cell lines OCT1*2 and *3, were generated using the Flp-In system (Thermo Fisher Scientific, Darmstadt, Germany) as described in previous publications. The cell line overexpressing OCT3 was a kind gift from Dr. Koepsell and Dr. Gorbulev (University of Würzburg, Germany). Cells transfected with the empty pcDNA5/FRT vector were used for the transport experiments as a control cell line. All cells were cultured approximately up to passage 30.
# (§2) Forty-eight hours before the transport experiments, 600,000 cells were plated on 12-well plates pre-coated with poly-D-lysine and incubated at 37 °C with 5% CO2. The prepared 12-well plate with cells was positioned on a heating plate pre-warmed to 37 °C. After removing the medium, the cells were washed with 37 °C HBSS+ (10 mM HEPES in Hank’s balanced salt solution, pH 7.4). Then, one pre-defined concentration of a substrate was added to each well. The incubation period was stopped by adding 2 mL of 4 °C HBSS+ and removing the cells from the heating plate. The cells were washed twice with 4 °C HBSS+. For cell lysis, the cells were incubated for 15 min with 500 µL of 80% acetonitrile (LGC Standards, Wesel, Germany), which contained a respective internal standard (Table 1).
# (§3) For concentration-dependent transport, the cells were incubated with defined substrate concentrations (0.1, 1, 10, 30, 100, 300, 600, 1000 µM) for the respective pre-defined incubation times. […] The uptake by a transporter was normalised to the uptake by empty vector-transfected cells. […] The results of transport experiments were normalized to the total protein concentration per well. Total protein quantification was performed using a bicinchoninic acid assay with bovine serum albumin as standard.
# (§4) The ratios of cellular uptake were calculated by dividing the total uptake of transporter-overexpressing cells by the total uptake into empty vector transfected cells. The concentration-dependent cellular net uptake was used for analysis of transport kinetics by subtracting for each substrate concentration the uptake of empty vector-transfected cells from the uptake of transporter-overexpressing cells. […] The intrinsic clearance Clint was expressed with the ratio of Vmax and KM.
# [2] = target: T2, wild-type human OCT2 (Homo sapiens, UniProt O15244); test: Cellular uptake ratio, OCT2-overexpressing HEK293 cells vs empty vector; format: cell-based; conditions: based on ratio uptake data at 1 µM
# T2 sequence (O15244 1-555): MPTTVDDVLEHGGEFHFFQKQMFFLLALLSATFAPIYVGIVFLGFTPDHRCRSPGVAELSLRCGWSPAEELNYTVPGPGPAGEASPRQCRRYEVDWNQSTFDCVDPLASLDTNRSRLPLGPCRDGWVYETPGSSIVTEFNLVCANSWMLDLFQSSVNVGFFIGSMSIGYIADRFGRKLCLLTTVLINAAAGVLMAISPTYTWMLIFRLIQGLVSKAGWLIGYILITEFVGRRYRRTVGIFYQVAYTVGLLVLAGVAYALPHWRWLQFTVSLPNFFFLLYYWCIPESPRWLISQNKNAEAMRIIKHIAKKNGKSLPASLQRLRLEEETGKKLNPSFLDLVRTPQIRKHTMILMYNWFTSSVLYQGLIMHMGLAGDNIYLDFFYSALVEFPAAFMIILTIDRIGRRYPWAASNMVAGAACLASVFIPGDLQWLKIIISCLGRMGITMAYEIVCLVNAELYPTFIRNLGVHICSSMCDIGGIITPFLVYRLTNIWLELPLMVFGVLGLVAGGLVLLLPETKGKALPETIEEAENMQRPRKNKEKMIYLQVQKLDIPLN
# Method: as §1, §2, §3, §4
# [3] = target: T3, OCT3 (Homo sapiens, UniProt O75751); test: Cellular uptake ratio, OCT3-overexpressing HEK293 cells vs empty vector; format: cell-based; conditions: based on ratio uptake data at 1 µM
# T3 construct: expressed in transfected cells; host or cells: HEK293, stably transfected; gift from Dr. Koepsell and Dr. Gorbulev (University of Würzburg)
# T3 sequence (O75751 1-556): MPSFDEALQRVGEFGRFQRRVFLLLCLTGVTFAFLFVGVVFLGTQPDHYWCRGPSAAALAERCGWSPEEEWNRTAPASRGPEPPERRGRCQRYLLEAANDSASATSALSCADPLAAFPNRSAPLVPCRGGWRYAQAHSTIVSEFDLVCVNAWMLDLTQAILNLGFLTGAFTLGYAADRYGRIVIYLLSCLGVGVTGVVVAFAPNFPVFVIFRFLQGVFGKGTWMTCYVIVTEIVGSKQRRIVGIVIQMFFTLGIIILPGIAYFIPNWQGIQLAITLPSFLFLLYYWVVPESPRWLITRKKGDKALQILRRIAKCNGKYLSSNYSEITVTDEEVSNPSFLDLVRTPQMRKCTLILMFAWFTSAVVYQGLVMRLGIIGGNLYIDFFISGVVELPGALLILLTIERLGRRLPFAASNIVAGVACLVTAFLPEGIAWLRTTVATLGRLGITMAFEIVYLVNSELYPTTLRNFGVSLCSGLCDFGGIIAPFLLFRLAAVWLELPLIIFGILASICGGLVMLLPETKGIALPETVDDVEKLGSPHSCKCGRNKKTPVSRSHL
# Method: as §1, §2, §3, §4
# [4] = target: T4, mutant human OCT1 D474N (Homo sapiens, UniProt O15245, D474N); test: Cellular uptake by HEK293 cells overexpressing variant OCT1 D474N; format: cell-based; conditions: p < 0.01
# T4 construct: expressed in transfected cells
# T4 sequence (O15245 1-554 D474N): T1 sequence (O15245 1-554) with D474N
# [5] = target: T1, human OCT1*1 (wild-type); test: Concentration-dependent uptake (transport kinetics) in HEK293 cells overexpressing OCT1 wild-type; conditions: for Clint (±SEM): intrinsic clearance = ratio of Vmax and KM, OCT1 wild-type
# [6] = target: T5, OCT1*3 (R61C) (Homo sapiens, UniProt O15245, R61C); test: Cellular uptake by HEK293 cells overexpressing OCT1*3; format: cell-based; conditions: 1 µM substance
# T5 construct: expressed in transfected cells
# T5 sequence (O15245 1-554 R61C): T1 sequence (O15245 1-554) with R61C
# Method: as §1, with “The transport experiments were performed using HEK293 cells that overexpress human OCT1*1 (wild-type), mutant human OCT1 D474N, variant human OCT1*2 (M420del) and OCT1*3 (R61C), wild-type human OCT2, and OCT3 after stable transfection. The wild-type” for “The wild-type”
# as §2
# (§5) For time-dependent transport, the cells were incubated with 1 µM of the substance for 15 to 240 s to determine the linear uptake range ≥ 15 s. For concentration-dependent transport, the cells were incubated with defined substrate concentrations (0.1, 1, 10, 30, 100, 300, 600, 1000 µM) for the respective pre-defined incubation times. […]; 100 µM) and pre-defined incubation times. The uptake by a transporter was normalised to the uptake by empty vector-transfected cells. […] The results of transport experiments were normalized to the total protein concentration per well. Total protein quantification was performed using a bicinchoninic acid assay with bovine serum albumin as standard.
# (§6) The ratios of cellular uptake were calculated by dividing the total uptake of transporter-overexpressing cells by the total uptake into empty vector transfected cells. The concentration-dependent cellular net uptake was used for analysis of transport kinetics by subtracting for each substrate concentration the uptake of empty vector-transfected cells from the uptake of transporter-overexpressing cells. The transport kinetic parameters Vmax and KM were determined with non-linear regression by using the Michaelis–Menten equation for net uptake data and by using the Michaelis–Menten equation extended with a linear term for total uptake data (GraphPad Prism 5.01, GraphPad software, LA Jolla, CA, USA). The intrinsic clearance Clint was expressed with the ratio of Vmax and KM.
# [7] = Concentration-dependent uptake into empty vector-transfected HEK293 cells; format: cell-based, human; conditions: human, empty vector (pcDNA5/FRT)-transfected HEK293 cells, pH 7.4; empty vector-transfected HEK cells; read-out: intrinsic clearance
# Method: as §1, with “The transport experiments were performed using HEK293 cells that overexpress human OCT1*1 (wild-type), mutant human OCT1 D474N, variant human OCT1*2 (M420del) and OCT1*3 (R61C), wild-type human OCT2, and OCT3 after stable transfection. The wild-type” for “The wild-type”
# as §2, §5, §6
# [8] = test system: empty vector-transfected HEK cells; test: as above; format: cell-based, human; conditions: uptake into empty vector-transfected cells
# Method: as §1, with “The transport experiments were performed using HEK293 cells that overexpress human OCT1*1 (wild-type), mutant human OCT1 D474N, variant human OCT1*2 (M420del) and OCT1*3 (R61C), wild-type human OCT2, and OCT3 after stable transfection. The wild-type” for “The wild-type”
# as §2, §5, §6
uptake by OCT1*3 in comparison to OCT1*1 [6],microsomal CLint [7],Clint (±SEM) [5],Clint (±SEM) ([5]; listed as methyldopa),SMILES,OCT1 transport category [1],OCT2 transport category [2],OCT3 transport category [3],enhancement of uptake by OCT1 D474N compared to wild-type [4],"OCT1 substrate classification from concentration-dependent uptake ([5]; good >5, poor 1–5, non-substrate <1 µL/mg protein/min or uptake not above empty vector)",Km [8],Vmax [8]
–,–,–,–,"C[N+](C)(C)[C@@H](Cc1c[nH]c2ccccc12)C(=O)[O-] [Hypaphorine, hypaphorine]","0 (no transport by OCT1, OCT2, and OCT3 occurred (i.e., no kinetic parameters or uptake ratio <2 without significance))","0 (no transport by OCT1, OCT2, and OCT3 occurred (i.e., no kinetic parameters or uptake ratio <2 without significance))","0 (no transport by OCT1, OCT2, and OCT3 occurred (i.e., no kinetic parameters or uptake ratio <2 without significance))",two-fold enhancement; also recorded: significantly increased uptake by the variant OCT1 D474N,linear increase in total uptake of both cell lines,–,–
reduction in uptake,–,–,–,"Nc1ccn([C@@H]2CS[C@H](CO)O2)c(=O)n1 [Lamivudine, lamivudine]",–,–,"0 (no transport by OCT1, OCT2, and OCT3 occurred (i.e., no kinetic parameters or uptake ratio <2 without significance))",–,–,–,–
–,15.1 µL/min/mg,5.94 ± 4.63 µL/mg Protein/min,5.94 µL/mg Protein/min,"C[C@](N)(Cc1ccc(O)c(O)c1)C(=O)O [Methyldopa, L-(–)-α-methyldopa]",+/− (poor transport with a Clint < 5 or ratio between 1–2 with statistical significance (p < 0.05)),"0 (no transport by OCT1, OCT2, and OCT3 occurred (i.e., no kinetic parameters or uptake ratio <2 without significance))","0 (no transport by OCT1, OCT2, and OCT3 occurred (i.e., no kinetic parameters or uptake ratio <2 without significance))",–,–,32.2 µM,488 pmol/mg protein/min
